Measured values published in patent publication US20020137929A1, “1 - (3-heterocyclylphenyl) isothiourea, -isourea, -guanidine and -amidine herbicidal agents” (Intellectual Property Department, BASF Aktiengesellschaft, priority 1998, published 2002).

Assays:
CYPIR (Rice Flatsedge) = assay: Preemergence weed control under flooded paddy conditions; assay type: in vivo, Cyperus iria; settings: rated 3-4 weeks after treatment
Method in brief: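 Seeds or propagules sown in top 0.5 cm of silt loam soil, flooded 1.5 to 3 cm above surface throughout. Compound in 50/50 v/v aqueous/acetone pipetted into flood water at about 0.0313 to 0.500 kg/ha. Visual 0-9 rating versus control after three to four weeks in greenhouse.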

ORYSAT (Rice, Tebonnet) [1] = assay: Rice tolerance to post-transplant applications, flooded paddy conditions (Table III); assay type: in vivo, Oryza sativa, (L.) Tebonnet
Method in brief: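 Two ten-day-old Tebonnet seedlings transplanted into flooded silt loam (water 1.5 to 3 cm above soil); three days later the water surface was treated with compound in aqueous/acetone 50/50 at about 0.0313 to 0.500 kg/ha. Visual 0-9 injury rating versus control after three to four weeks in greenhouse.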

MOOVA (Monochoria) = assay: Postemergence weed control under flooded paddy conditions; assay type: in vivo, Monochoria vaginalis; settings: postemergence weeds
Method in brief: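 With weeds 3 to 5 cm tall and rice at the 1.5 to 2.5 leaf stage, containers were flooded and water held 1.5 to 3 cm above soil. Compounds in 50/50 v/v aqueous/acetone went into the flood water at about 0.0313 to 0.500 kg/ha a.i. Effects were visually rated 0–9 against controls after three to four weeks in the greenhouse.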

AMBEL (Ragweed, Common) = assay: Preemergence herbicidal evaluation; assay type: in vivo, Ambrosia artemisifolia; settings: rated 4-5 weeks after treatment
Method in brief: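 In this greenhouse assay, monocot and dicot seeds are planted in soil and treated prior to emergence with an aqueous acetone spray (about 0.0156-0.500 kg/ha). Plants are assessed visually against control on a 0-9 scale after 4-5 weeks.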

ORYSAT (Rice, Tebonnet) [2] = assay: Rice tolerance to post-transplant applications, flooded paddy conditions (Table IV); assay type: in vivo, Oryza sativa, (L.) Tebonnet
From the text: Results of herbicide evaluation are expressed on a rating scale (0-9). The scale is based upon a visual observation of plant stand, vigor, malformation, size, chlorosis and overall plant appearance as compared with a control.
Plastic containers containing weeds which are 3 to 5 cm tall and rice seedlings at the 1.5 to 2.5 leaf stage are flooded with water. The water is maintained at 1.5 to 3 cm above the soil surface for the duration of the experiment. Test compounds are applied as aqueous/ acetone mixtures 50/50 v/v directly into the flood water to provide the equivalent of about 0.0313 to 0.500 kg/ha of active ingredient. The treated containers are placed on greenhouse benches and cared for in accordance with conventional greenhouse procedures. Three to four weeks after treatment, the test is terminated and each container is examined and herbicidal effect rated according to the rating system provided in Example 37. The compounds evaluated are reported by compound number given in Example 37.

[3] = rate 0.0313 kg/ha, 3-4 weeks after treatment
[4] = rate 0.0625 kg/ha, 3-4 weeks after treatment
[5] = rate 0.1250 kg/ha, 3-4 weeks after treatment
[6] = rate 0.2500 kg/ha, 3-4 weeks after treatment
[7] = 0.0313 kg/ha, post-transplant rice, flooded paddy, rated 3-4 weeks after treatment
[8] = 0.0625 kg/ha, post-transplant rice, flooded paddy, rated 3-4 weeks after treatment
[9] = 0.1250 kg/ha, post-transplant rice, flooded paddy, rated 3-4 weeks after treatment
[10] = 0.2500 kg/ha, post-transplant rice, flooded paddy, rated 3-4 weeks after treatment
[11] = rate 0.0313 kg/ha, flooded paddy, post-transplant rice, 3-4 weeks after treatment
[12] = rate 0.0625 kg/ha, flooded paddy, post-transplant rice, 3-4 weeks after treatment
[13] = rate 0.1250 kg/ha, flooded paddy, post-transplant rice, 3-4 weeks after treatment
[14] = rate 0.2500 kg/ha, flooded paddy, post-transplant rice, 3-4 weeks after treatment

Row | Compound | Herbicidal rating CYPIR (CYPIR (Rice Flatsedge); 0.0625 kg/ha) | Herbicidal rating CYPIR (CYPIR (Rice Flatsedge); 0.1250 kg/ha) | Herbicidal rating CYPIR (CYPIR (Rice Flatsedge); 0.2500 kg/ha) | ORYSAT herbicidal effect rating (rice tolerance) (ORYSAT (Rice, Tebonnet) [1]; in vivo) | Herbicidal rating MOOVA (MOOVA (Monochoria); [3]) | Herbicidal rating MOOVA (MOOVA (Monochoria); [4]) | Herbicidal rating MOOVA (MOOVA (Monochoria); [5]) | Herbicidal rating MOOVA (MOOVA (Monochoria); [6]) | AMBEL preemergence herbicidal rating (AMBEL (Ragweed, Common); rate 0.1250 kg/ha) | AMBEL preemergence herbicidal rating (AMBEL (Ragweed, Common); rate 0.2500 kg/ha) | Herbicidal rating CYPIR (CYPIR (Rice Flatsedge); 0.0313 kg/ha) | Herbicidal rating ORYSAT (rice tolerance) (ORYSAT (Rice, Tebonnet) [1]; in vivo) | Herbicidal rating ORYSAT (rice tolerance) (ORYSAT (Rice, Tebonnet) [2]; in vivo) | Preemergence herbicidal rating AMBEL (AMBEL (Ragweed, Common); rate 0.0156 kg/ha) | Preemergence herbicidal rating AMBEL (AMBEL (Ragweed, Common); rate 0.0313 kg/ha) | Preemergence herbicidal rating AMBEL (AMBEL (Ragweed, Common); rate 0.0625 kg/ha) | Preemergence herbicidal rating AMBEL (AMBEL (Ragweed, Common); rate 0.1250 kg/ha) | Preemergence herbicidal rating AMBEL (AMBEL (Ragweed, Common); rate 0.2500 kg/ha) | also measured
1 | 2-{{2-Chloro-5-[3,6-dihydro-3-methyl-2,6-dioxo-4-(trifluoromethyl)-1(2H)-pyrimidinyl]-4-fluoro-phenyl}imino}-4-oxo-3,5-thiazolidenediacetic acid, 3-ethyl (2-propynyl) ester, (2:1) mixture with di-2-propynyl ester [Compound 58] | 0.0 | 2.0 | 3.0 | 4.0 | 0.0 | 0.0 | 3.0 | 9.0 | – | – | – | – | – | – | – | – | – | – | CYPIR herbicidal effect rating (CYPIR (Rice Flatsedge); 0.0313 kg/ha): 0.0
2 | CCOC(=O)/C=C1/S/C(=N/c2cc(-n3c(=O)cc(C(F)(F)F)n(C)c3=O)c(F)cc2Cl)N(CC(=O)OCC)C1=O [Compound 14] | 2.5 | 4.5 | 0.0 | – | 6.8 | 6.8 | 6.8 | 4.5 | 6.5 | 9.0 | 2.0 | – | – | – | – | – | – | – | AMBEL preemergence herbicidal rating (AMBEL (Ragweed, Common); rate 0.0313 kg/ha): 0.0; AMBEL preemergence herbicidal rating (AMBEL (Ragweed, Common); rate 0.0625 kg/ha): 1.0; AMBEL preemergence herbicidal rating (AMBEL (Ragweed, Common); rate 0.5000 kg/ha): 9.0; Herbicidal rating ORYSAT (rice tolerance) (ORYSAT (Rice, Tebonnet) [1]; [7]): 0.0; Herbicidal rating ORYSAT (rice tolerance) (ORYSAT (Rice, Tebonnet) [1]; [8]): 0.5; Herbicidal rating ORYSAT (rice tolerance) (ORYSAT (Rice, Tebonnet) [1]; [9]): 1.0; Herbicidal rating ORYSAT (rice tolerance) (ORYSAT (Rice, Tebonnet) [1]; [10]): 0.0; Herbicidal rating ORYSAT (rice tolerance) (ORYSAT (Rice, Tebonnet) [2]; [11]): 0.0; Herbicidal rating ORYSAT (rice tolerance) (ORYSAT (Rice, Tebonnet) [2]; [12]): 0.3; Herbicidal rating ORYSAT (rice tolerance) (ORYSAT (Rice, Tebonnet) [2]; [13]): 0.5; Herbicidal rating ORYSAT (rice tolerance) (ORYSAT (Rice, Tebonnet) [2]; [14]): 0.0
3 | CCOC(=O)CN1C(=O)C(=Cc2ccccc2)SC1=Nc1cc(-n2c(=O)cc(C(F)(F)F)n(C)c2=O)c(F)cc1Cl [Compound 19, Ethyl 5-benzylidene-2-{{2-chloro-5-[3,6-dihydro-3-methyl-2,6-dioxo-4-(trifluoromethyl)-1(2H)-pyrimidinyl]-4-fluorophenyl}imino}-4-oxo-3-thiazolidineacetate] | – | – | – | – | – | – | – | – | 0.0 | 1.0 | – | 3.0 | 3.0 | – | – | – | – | – | Herbicidal rating CYPIR (CYPIR (Rice Flatsedge); 0.1160 kg/ha): 0.0; Herbicidal rating CYPIR (CYPIR (Rice Flatsedge); 0.2310 kg/ha): 0.0; Herbicidal rating CYPIR (CYPIR (Rice Flatsedge); 0.4630 kg/ha): 0.0; Herbicidal rating MOOVA (MOOVA (Monochoria); rate 0.1160 kg/ha, 3-4 weeks after treatment): 9.0; Herbicidal rating MOOVA (MOOVA (Monochoria); rate 0.2310 kg/ha, 3-4 weeks after treatment): 9.0; Herbicidal rating MOOVA (MOOVA (Monochoria); rate 0.4630 kg/ha, 3-4 weeks after treatment): 9.0
4 | CCOC(=O)CN1C(=O)C(Cc2ccccc2)SC1=Nc1cc(-n2c(=O)cc(C(F)(F)F)n(C)c2=O)c(F)cc1Cl (stereo not drawn) [Compound 24, Ethyl 5-benzyl-2-{{2-chloro-5-[3,6-dihydro-3-methyl-2,6-dioxo-4-(trifluoromethyl)-1(2H)-pyrimidinyl]-4-fluorophenyl}imino}-4-oxo-3-thiazolidineacetate] | 0.0 | 0.0 | 0.0 | – | 0.0 | 9.0 | 9.0 | 9.0 | 0.0 | 2.0 | 0.0 | 0.0 | 0.0 | – | – | – | – | – | AMBEL preemergence herbicidal rating (AMBEL (Ragweed, Common); rate 0.0625 kg/ha): 0.0
5 | CCOC(=O)CN1C(=O)C(CC(=O)O)SC1=Nc1cc(-n2c(=O)cc(C(F)(F)F)n(C)c2=O)c(Cl)cc1Cl (stereo not drawn) [Compound 33, 2-{{2,4-Dichloro-5-[3,6-dihydro-3-methyl-2,6-dioxo-4-(trifluoromethyl)-1(2H)-pyrimidinyl]phenyl}-imino}-4-oxo-3,5-thiazolidinediacetic acid, 3-ethyl ester] | – | – | 0.0 | – | – | – | – | – | – | – | – | 0.0 | 0.0 | 0.0 | 0.0 | 9.0 | 9.0 | 9.0 | –
6 | CCOC(=O)CN1CC(=O)N(CC(=O)OCC)C1=Nc1cc(-n2c(=O)cc(C(F)(F)F)n(C)c2=O)c(F)cc1Cl [Compound 34, 2-{{2-Chloro-5-[3,6-dihydro-3-methyl-2,6-dioxo-4-(trifluoromethyl)-1(2H)-pyrimidinyl]-4-fluoro-phenyl}imino}-4-oxo-1,3-imidazolidinediacetic acid, diethyl ester] | 0.0 | 0.0 | 0.0 | – | – | – | – | – | – | – | 0.0 | – | – | – | 0.0 | 4.0 | 4.0 | 7.0 | Herbicidal rating ORYSAT (rice tolerance) (ORYSAT (Rice, Tebonnet) [1]; [7]): 3.0; Herbicidal rating ORYSAT (rice tolerance) (ORYSAT (Rice, Tebonnet) [1]; [8]): 3.0; Herbicidal rating ORYSAT (rice tolerance) (ORYSAT (Rice, Tebonnet) [1]; [9]): 4.0; Herbicidal rating ORYSAT (rice tolerance) (ORYSAT (Rice, Tebonnet) [1]; [10]): 6.0; Herbicidal rating ORYSAT (rice tolerance) (ORYSAT (Rice, Tebonnet) [2]; [11]): 3.0; Herbicidal rating ORYSAT (rice tolerance) (ORYSAT (Rice, Tebonnet) [2]; [12]): 3.0; Herbicidal rating ORYSAT (rice tolerance) (ORYSAT (Rice, Tebonnet) [2]; [13]): 4.0; Herbicidal rating ORYSAT (rice tolerance) (ORYSAT (Rice, Tebonnet) [2]; [14]): 6.0
7 | C[C@@H](C(=O)O)N1C(=O)CS/C1=N/c1cc(-n2c(=O)cc(C(F)(F)F)n(C)c2=O)c(F)cc1Cl [Compound 51, 2-{{2-Chloro-5-[3,6-dihydro-3-methyl-2,6-dioxo-4-(trifluoromethyl)-1(2H)-pyrimidinyl]-4-fluoro-phenyl}imino}-α-methyl-4-oxo-3-thiazolidineacetic acid, L-] | 2.0 | 3.0 | 6.0 | – | – | 3.0 | 4.0 | 4.0 | – | – | – | 0.0 | 0.0 | 0.0 | 0.0 | 4.0 | 9.0 | 9.0 | –
8 | Cn1c(C(F)(F)F)cc(=O)n(-c2cc(/N=C3/SC(CC(=O)O)C(=O)N3CC(=O)O)c(Cl)cc2F)c1=O (stereo not drawn) [Compound 61, 2-{{2-Chloro-5-[3,6-dihydro-3-methyl-2,6-dioxo-4-(trifluoromethyl)-1(2H)-pyrimidinyl]-4-fluorophenyl}imino}-4-oxo-3,5-thiazolidinediacetic acid] | – | – | – | 0.0 | – | – | – | – | – | – | – | – | 0.0 | – | – | – | 0.0 | 0.0 | CYPIR herbicidal effect rating (CYPIR (Rice Flatsedge); 0.2500 kg/ha): 0.0; Herbicidal rating MOOVA (MOOVA (Monochoria); Rate 0.2500 kg/ha, rated 3 to 4 weeks after treatment): 0.0
9 | CC(C)C[C@@H](C(=O)O)N1C(=O)CSC1=Nc1cc(-n2c(=O)cc(C(F)(F)F)n(C)c2=O)c(F)cc1Cl [Compound 71, α-Isobutyl-2-{{2-chloro-5-[3,6-dihydro-3-methyl-2,6-dioxo-4-(trifluoromethyl)-1(2H)-pyrimidinyl]-4-fluorophenyl}imino}-4-oxo-3-thiazolidineacetic acid, L-] | – | – | – | 4.0 | – | – | – | – | – | – | – | – | 4.0 | 1.0 | 2.0 | 7.0 | 9.0 | 9.0 | CYPIR herbicidal effect rating (CYPIR (Rice Flatsedge); 0.1250 kg/ha): 3.0; CYPIR herbicidal effect rating (CYPIR (Rice Flatsedge); 0.2500 kg/ha): 7.0
